From paper PMC9227781, “Inhibitors of O-Acetylserine Sulfhydrylase with a Cyclopropane-Carboxylic Acid Scaffold Are Effective Colistin Adjuvants in Gram Negative Bacteria” (Pharmaceuticals, 2022)

What was measured:
[1] = test system: E. coli ATCC 25922; assay: MIC by broth microdilution, E. coli; assay type: cell-based, Escherichia coli; details: colistin alone, MHB
Protocol: (§1) MIC values were evaluated following CLSI guidelines with some modifications, as referred to in previous work. Twofold dilutions 25.6–0.05 mg/mL of the tested compounds were performed in DMSO in separate 96-well microtiter U-plates (Greiner, Milan, Italy). In a different 96-well microtiter U-plate, for each well of the replicates, 49 µL of broth medium were added. Then, in each well of the plate, one microliter of each compound at variable dilution in DMSO was added. For each test, three independent experiments with three replicates each were performed. Tested reference bacterial strains (E. coli ATCC25922; S. Typhimurium ATCC14028; K. pneumoniae ATCC13883) were brought to the logarithmic phase of growth in MHB medium by incubation at 37 °C for 24 h. After incubation, bacterial suspensions were centrifuged (2000 rpm, 4 °C for 20 min), and then the pellets were resuspended in 100 mM phosphate buffer, pH 7.0, to reach a final bacterial concentration of 10^8 CFU/mL, adjusted by spectrophotometry (OD620nm ranged between 0.08–0.13). The obtained suspensions were further diluted 1:100 in broth medium to reach a bacterial concentration of 10^6 CFU/mL. Fifty µL of the bacterial suspension containing 10^6 CFU/mL were inoculated into each well within 30 min, to obtain a final concentration of 5 × 10^5 CFU/mL in a total volume of 100 µL. The final dilution range tested was 256–0.5 µg/mL. Growth and sterility controls were performed for each strain and for each tested compound. Plates were then incubated for 24 h at 37 °C in a static aerobic atmosphere. After incubation, plates were read by unaided eye with a microtiter reading mirror and then the OD of each well of the plates was measured spectrophotometrically at 620 nm. MIC values were calculated as the arithmetic mean ± standard deviation (SD) of the unaided eye reading and the inhibition of growth for each tested dilution was calculated from the OD values (mean ± SD). A quality control microorganism (E. coli ATCC 25922) was tested periodically to validate the accuracy of the procedure.

[2] = test system: S. Typhimurium ATCC14028; assay: MIC by broth microdilution, S. Typhimurium; assay type: cell-based, Salmonella enterica serovar Typhimurium; details: colistin alone, MHB, ATCC14028 (wild type)
Protocol: as §1

[3] = test system: S. Typhimurium DW378; assay: Target engagement: MIC of 12h and colistin in cysK/cysM-inactive mutant strain; assay type: cell-based, Salmonella enterica serovar Typhimurium; details: colistin alone
Protocol: In this regard, compound 12h has been selected because of its favorable overall properties. It has been tested at a concentration of 32 μg/mL, in order to ensure complete inactivation of both the OASS isoforms. […] The MIC assays of 12h and colistin alone on the DW378 strain have been performed and they have been compared with those obtained on the WT strain. […] But, on the other hand, the MIC value of colistin was […] lower on the mutant strain than that on the WT, a result that overlapped those achieved with the association of colistin and 12h in WT cells.
MIC values were evaluated following CLSI guidelines with some modifications, as referred to in previous work. Twofold dilutions 25.6–0.05 mg/mL of the tested compounds were performed in DMSO in separate 96-well microtiter U-plates (Greiner, Milan, Italy). In a different 96-well microtiter U-plate, for each well of the replicates, 49 µL of broth medium were added. Then, in each well of the plate, one microliter of each compound at variable dilution in DMSO was added. For each test, three independent experiments with three replicates each were performed.
Antimicrobial activity of associations between the different compounds and colistin (Sigma-Aldrich, St. Louis, MO, USA, lot n. 049M-4836 V) was tested with checkerboard assay with minor modifications, as mentioned in the previous work. For each assay, three experiments with three replicates each were assessed. For each compound tested concentration, 96-wells microtiter U-plates were prepared with twofold serial dilutions of colistin in MHB starting from the MIC value (µg/mL) for ten consecutive dilutions in 50 µL of broth. In each well of the same replicate, 1 µL of each compound in DMSO was added at a fixed concentration, 100 times higher than the final desired concentration (3.2; 1.6; 0.8 mg/mL). Subsequently, 49 µL of the bacterial suspension at a concentration of 10^6 CFU/mL, adjusted spectrophotometrically as reported above, was added to each well, reaching the final bacterial concentration of 5 × 10^5 CFU/mL. Growth and sterility controls were performed for each experiment and for each replicate. Finally, the plates were incubated at 37 °C in aerobic atmosphere for 24 h. After incubation, plates were read by unaided eye with a microtiter reading mirror and then the OD of each well of the plates was measured spectrophotometrically at 620 nm. MIC values were calculated as the arithmetic mean ± SD of the unaided eye reading and the inhibition of growth for each tested dilution was calculated from the OD values (mean ± SD).
* This strain is defective for the expression of cysK and cysM genes, encoding for isozymes OASS-A and B. The genotypes of this strain are trpC109, cysK1772, and cysM1770. […]

[4] = test system: K. pneumoniae ATCC13883; assay: MIC by broth microdilution, K. pneumoniae; assay type: cell-based, Klebsiella pneumoniae; details: colistin alone, MHB
Protocol: as §1

[5] = test system: all bacterial species considered in that study; set-up: method as in PMID 33513010; details: cited from earlier work
[6] = target: T1, StOASS-B (Salmonella typhimurium, UniProt P29848); set-up: method as in PMID 26894308; details: read-out: KD toward isoform B from S. Typhimurium; cited from earlier work
T1 construct: His-tag (with TEV site) (cleaved yes); made in house; host or cells: E. coli Rosetta (DE3)
T1 sequence (P29848 1-303): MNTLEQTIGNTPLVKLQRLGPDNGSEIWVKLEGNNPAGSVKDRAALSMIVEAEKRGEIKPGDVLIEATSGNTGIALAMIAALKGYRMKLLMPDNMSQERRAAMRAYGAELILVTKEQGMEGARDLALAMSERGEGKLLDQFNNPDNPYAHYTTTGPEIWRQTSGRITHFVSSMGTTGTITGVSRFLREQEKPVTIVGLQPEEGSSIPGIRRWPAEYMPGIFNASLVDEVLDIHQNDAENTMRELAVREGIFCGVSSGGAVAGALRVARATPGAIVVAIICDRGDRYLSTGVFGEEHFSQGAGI

[7] = target: T2, StOASS-A (Salmonella typhimurium, UniProt P0A1E3); set-up: method as in PMID 26894308; details: read-out: KD toward isoform A from S. Typhimurium; cited from earlier work
T2 construct: His-tag (with TEV site) (cleaved yes); made in house; host or cells: E. coli Rosetta (DE3)
T2 sequence (P0A1E3 whole entry, canonical isoform): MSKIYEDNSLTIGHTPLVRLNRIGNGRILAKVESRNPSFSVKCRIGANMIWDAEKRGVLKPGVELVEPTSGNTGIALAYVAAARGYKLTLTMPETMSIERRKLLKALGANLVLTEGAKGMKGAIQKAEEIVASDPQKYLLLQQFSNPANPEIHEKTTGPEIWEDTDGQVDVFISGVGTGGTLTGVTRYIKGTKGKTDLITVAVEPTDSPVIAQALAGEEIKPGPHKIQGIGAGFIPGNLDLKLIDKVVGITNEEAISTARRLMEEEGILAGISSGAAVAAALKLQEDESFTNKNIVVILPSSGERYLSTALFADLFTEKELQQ

Row | Compound | MIC Colistin E. coli [1] | MIC Colistin S. Typhimurium [2] | MIC Colistin ([3]; DW378 mutant strain) | MIC of colistin on mutant strain DW378 relative to WT (fold lower) ([3]; DW378 versus wild type) | MIC Colistin K. pneumoniae [4] | effect as colistin adjuvant [5] | Kd [6] | Kd [7]
1 | Colistin [reference compound] | 0.39 ± 0.25 µg/mL | 0.53 ± 0.19 µg/mL | 0.141 ± 0.09 µg/mL | 5 fold | 4.00 ± 1.73 µg/mL |  |  | 
2 | Cc1ccc(C[C@@]2(C(=O)O)C[C@H]2c2ccccc2)cc1 [UPAR415] |  |  |  |  |  | synergistic or additive effect | 0.49 µM | 0.028 µM
